“And” between values parts separate entries of the source, which are not always exact repeats. Equal entries are not always repeated. Where two headings read alike, the source gives them in different places.
Assays:
Assay in all cases: SelectScreen kinase assay
CDK3/cyclin E1 = CDK3/cyclin E1 (Homo sapiens, UniProt Q00526); details: for Inhibition at 1 µM (%): CDK3/cyclin E1, LanthaScreen Binding
Method: (§1) Selectivity profiling assays were performed by the Invitrogen SelectScreen™ Services. […] The concentration of ATP was selected to be equal to the KM, unless indicated otherwise.

MLK4 = MLK4 (Homo sapiens, UniProt Q5TCX8)
Method: as §1

MST4 = MST4 (Homo sapiens, UniProt Q9P289)
Method: as §1

MAP2K2 (MEK2) = MAP2K2 (MEK2) (Homo sapiens, UniProt P36507)
Method: as §1

NIM1K = NIM1K (Homo sapiens, UniProt Q8IY84)
Method: as §1

DAPK2 = DAPK2 (Homo sapiens, UniProt Q9UIK4); details: for Inhibition at 1 µM (%): DAPK2, LanthaScreen Binding
Method: as §1

MAP3K8 (COT) [1] = details: IC50 on that kinase divided by IC50 on FES^S700C
Method: as §1

MAP3K8 (COT) [2] = biological target: MAP3K8 (COT) (Homo sapiens, UniProt P41279)
Method: as §1

YES1 = YES1 (Homo sapiens, UniProt P07947)
Method: as §1

TYRO3 (RSE) = biological target: T1, TYRO3 (RSE) (Homo sapiens, UniProt Q06418)
T1 sequence (Q06418 41-890): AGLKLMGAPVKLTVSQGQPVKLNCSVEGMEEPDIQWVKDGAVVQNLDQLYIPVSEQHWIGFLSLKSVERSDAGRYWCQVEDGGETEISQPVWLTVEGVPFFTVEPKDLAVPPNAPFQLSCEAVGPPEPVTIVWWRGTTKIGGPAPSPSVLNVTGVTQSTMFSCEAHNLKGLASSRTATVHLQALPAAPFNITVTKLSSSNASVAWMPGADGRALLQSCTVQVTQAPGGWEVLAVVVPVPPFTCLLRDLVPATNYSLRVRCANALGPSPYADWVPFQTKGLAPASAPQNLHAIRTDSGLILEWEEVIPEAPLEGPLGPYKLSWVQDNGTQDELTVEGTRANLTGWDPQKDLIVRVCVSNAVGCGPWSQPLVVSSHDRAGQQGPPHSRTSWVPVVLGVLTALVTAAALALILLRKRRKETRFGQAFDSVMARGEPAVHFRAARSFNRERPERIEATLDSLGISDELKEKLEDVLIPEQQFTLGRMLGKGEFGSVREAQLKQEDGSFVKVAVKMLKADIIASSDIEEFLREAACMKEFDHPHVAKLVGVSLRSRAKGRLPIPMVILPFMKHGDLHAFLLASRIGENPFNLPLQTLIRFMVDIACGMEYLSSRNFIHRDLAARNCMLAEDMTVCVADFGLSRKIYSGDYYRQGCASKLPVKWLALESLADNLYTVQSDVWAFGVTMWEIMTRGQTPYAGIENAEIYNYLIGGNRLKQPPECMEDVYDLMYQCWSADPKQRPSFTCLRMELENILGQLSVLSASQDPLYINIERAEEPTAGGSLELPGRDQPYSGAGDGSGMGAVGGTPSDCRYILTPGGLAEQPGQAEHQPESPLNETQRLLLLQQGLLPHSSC
Method: as §1

ABL2 (Arg) = ABL2 (Arg) (Homo sapiens, UniProt P42684); details: for Inhibition at 1 µM (%): ABL2 (Arg), ZLYTE, ATP Km app
Method: as §1

DYRK1A = DYRK1A (Homo sapiens, UniProt Q13627); details: for Inhibition at 1 µM (%): DYRK1A, ZLYTE, ATP Km app
Method: as §1

[3] = 1 h, 1 μM WEL028, 1 h preincubation
[4] = 1 h, log[inhibitor] (M) -5.00, ZLYTE, ATP 100
[5] = 1 h, log[inhibitor] (M) -5.48, ZLYTE, ATP 100
[6] = 1 h, log[inhibitor] (M) -5.95, ZLYTE, ATP 100
[7] = 1 h, log[inhibitor] (M) -6.43, ZLYTE, ATP 100
[8] = 1 h, log[inhibitor] (M) -6.91, ZLYTE, ATP 100
[9] = 1 h, log[inhibitor] (M) -7.39, ZLYTE, ATP 100
[10] = 1 h, log[inhibitor] (M) -7.86, ZLYTE, ATP 100
[11] = 1 h, log[inhibitor] (M) -8.82, ZLYTE, ATP 100
[12] = 1 h, log[inhibitor] (M) -9.31, ZLYTE, ATP 100
[13] = 1 h, log[inhibitor] (M) -[…], ZLYTE, ATP 100
[14] = 1 µM, ZLYTE, ATP Km app, listed as WEL028, 1 µM
[15] = read-out: Inhibition at 1 µM (%), 1 µM, ZLYTE, ATP Km app

DAPK2, sequence (Q9UIK4 whole entry): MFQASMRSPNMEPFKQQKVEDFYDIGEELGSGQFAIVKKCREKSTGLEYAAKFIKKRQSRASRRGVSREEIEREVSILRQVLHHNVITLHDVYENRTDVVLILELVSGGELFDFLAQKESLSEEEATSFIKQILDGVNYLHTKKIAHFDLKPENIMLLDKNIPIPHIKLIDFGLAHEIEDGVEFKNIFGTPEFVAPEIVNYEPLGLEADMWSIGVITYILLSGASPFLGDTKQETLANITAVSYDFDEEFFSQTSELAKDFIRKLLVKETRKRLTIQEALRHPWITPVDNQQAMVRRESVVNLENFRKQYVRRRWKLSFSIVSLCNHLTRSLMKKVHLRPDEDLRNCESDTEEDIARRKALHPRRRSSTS
MAP3K8 (COT) (Homo sapiens, UniProt P41279), sequence (P41279 whole entry, species assumed): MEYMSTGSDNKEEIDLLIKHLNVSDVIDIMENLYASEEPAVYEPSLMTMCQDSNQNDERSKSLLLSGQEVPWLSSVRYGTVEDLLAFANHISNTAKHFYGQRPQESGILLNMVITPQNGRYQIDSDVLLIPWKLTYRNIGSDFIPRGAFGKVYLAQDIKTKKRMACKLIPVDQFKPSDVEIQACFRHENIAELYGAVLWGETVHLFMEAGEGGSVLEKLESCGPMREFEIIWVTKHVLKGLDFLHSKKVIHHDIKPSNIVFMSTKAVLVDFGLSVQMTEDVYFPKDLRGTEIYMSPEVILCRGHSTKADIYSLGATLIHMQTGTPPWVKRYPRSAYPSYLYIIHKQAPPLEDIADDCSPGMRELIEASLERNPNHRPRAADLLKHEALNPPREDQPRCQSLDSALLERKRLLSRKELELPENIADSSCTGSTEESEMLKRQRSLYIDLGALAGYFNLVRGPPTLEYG
MST4, sequence (Q9P289 whole entry): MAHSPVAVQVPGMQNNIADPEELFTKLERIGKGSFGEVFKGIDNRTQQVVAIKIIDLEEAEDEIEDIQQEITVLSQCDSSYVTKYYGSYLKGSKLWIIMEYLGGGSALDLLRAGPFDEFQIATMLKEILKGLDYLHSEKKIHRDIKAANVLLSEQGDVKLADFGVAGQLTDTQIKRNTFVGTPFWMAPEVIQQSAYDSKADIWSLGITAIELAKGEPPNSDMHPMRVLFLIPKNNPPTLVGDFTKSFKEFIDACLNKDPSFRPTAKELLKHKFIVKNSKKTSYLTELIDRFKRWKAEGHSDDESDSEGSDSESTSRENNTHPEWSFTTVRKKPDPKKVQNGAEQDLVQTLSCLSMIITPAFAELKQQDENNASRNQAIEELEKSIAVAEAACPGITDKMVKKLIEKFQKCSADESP
YES1, sequence (P07947 whole entry): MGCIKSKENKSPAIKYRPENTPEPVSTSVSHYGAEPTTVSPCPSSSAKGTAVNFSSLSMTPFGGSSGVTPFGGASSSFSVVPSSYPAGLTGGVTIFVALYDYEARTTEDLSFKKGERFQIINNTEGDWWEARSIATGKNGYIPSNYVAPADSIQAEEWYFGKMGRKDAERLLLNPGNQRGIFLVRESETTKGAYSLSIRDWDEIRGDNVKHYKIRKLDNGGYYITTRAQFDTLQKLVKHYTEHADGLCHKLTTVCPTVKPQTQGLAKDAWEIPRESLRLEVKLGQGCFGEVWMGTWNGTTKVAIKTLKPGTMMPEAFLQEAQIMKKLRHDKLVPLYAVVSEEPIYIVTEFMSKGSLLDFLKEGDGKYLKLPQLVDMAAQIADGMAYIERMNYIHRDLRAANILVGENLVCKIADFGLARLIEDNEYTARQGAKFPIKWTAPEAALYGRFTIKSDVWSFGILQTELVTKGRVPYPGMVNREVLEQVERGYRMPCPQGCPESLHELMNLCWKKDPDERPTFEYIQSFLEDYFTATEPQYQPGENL
MAP2K2 (MEK2), sequence (P36507 whole entry, species assumed): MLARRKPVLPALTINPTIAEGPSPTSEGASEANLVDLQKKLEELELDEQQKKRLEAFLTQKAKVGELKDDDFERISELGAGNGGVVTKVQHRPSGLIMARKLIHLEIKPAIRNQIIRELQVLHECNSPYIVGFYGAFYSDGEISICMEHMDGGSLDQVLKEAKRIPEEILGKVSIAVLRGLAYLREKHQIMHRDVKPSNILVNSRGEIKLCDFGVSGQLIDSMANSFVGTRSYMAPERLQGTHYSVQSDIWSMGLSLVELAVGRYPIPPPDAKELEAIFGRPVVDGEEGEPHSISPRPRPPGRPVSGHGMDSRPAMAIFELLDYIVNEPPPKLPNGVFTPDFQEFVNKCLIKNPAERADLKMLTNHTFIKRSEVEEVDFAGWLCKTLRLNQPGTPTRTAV
CDK3/cyclin E1, sequence (Q00526 whole entry): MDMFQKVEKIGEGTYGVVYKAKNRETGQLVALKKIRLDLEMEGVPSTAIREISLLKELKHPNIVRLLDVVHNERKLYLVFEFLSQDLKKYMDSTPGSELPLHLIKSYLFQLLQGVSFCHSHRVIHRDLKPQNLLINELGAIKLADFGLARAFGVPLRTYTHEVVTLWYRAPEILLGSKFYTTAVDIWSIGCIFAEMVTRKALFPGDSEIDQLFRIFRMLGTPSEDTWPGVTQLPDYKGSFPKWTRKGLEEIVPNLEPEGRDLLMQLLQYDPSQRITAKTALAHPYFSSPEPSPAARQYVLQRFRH
CDK3/cyclin E1, sequence (P24864 whole entry partner): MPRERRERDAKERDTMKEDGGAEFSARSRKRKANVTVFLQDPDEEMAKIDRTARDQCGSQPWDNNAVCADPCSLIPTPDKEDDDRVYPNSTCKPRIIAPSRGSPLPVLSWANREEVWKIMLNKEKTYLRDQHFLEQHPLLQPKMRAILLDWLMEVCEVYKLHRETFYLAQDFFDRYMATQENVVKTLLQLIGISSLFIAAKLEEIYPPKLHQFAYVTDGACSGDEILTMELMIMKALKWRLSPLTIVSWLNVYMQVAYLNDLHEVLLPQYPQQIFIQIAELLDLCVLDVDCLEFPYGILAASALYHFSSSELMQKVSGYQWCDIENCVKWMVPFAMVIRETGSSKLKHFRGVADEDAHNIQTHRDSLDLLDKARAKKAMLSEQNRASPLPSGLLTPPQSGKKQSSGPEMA
MLK4, sequence (Q5TCX8 whole entry): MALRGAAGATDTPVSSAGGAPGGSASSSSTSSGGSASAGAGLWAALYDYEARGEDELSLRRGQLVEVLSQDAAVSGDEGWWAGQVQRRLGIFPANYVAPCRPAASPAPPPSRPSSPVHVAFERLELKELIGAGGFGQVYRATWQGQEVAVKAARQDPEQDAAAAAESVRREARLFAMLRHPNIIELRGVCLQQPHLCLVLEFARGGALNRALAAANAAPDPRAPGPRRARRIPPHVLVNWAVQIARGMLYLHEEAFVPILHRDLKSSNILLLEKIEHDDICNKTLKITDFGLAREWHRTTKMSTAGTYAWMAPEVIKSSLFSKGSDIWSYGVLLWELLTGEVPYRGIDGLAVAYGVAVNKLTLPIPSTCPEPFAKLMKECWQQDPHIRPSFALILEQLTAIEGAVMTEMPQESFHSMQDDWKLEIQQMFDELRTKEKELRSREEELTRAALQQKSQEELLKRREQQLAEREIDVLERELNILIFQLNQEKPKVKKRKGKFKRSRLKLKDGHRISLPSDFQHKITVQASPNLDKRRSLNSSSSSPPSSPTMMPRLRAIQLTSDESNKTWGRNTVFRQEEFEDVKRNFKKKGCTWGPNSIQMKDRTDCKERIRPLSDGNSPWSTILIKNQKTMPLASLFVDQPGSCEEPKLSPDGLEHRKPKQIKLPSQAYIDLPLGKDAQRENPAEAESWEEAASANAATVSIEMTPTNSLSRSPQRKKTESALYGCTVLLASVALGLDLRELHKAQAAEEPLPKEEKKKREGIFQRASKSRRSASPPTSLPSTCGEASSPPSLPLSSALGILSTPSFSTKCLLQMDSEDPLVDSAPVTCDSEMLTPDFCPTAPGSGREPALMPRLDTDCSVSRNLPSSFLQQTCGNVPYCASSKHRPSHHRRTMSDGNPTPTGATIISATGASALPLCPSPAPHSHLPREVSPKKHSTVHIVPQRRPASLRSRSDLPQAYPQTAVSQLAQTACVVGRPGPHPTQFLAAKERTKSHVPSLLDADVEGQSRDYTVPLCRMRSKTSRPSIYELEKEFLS
NIM1K, sequence (Q8IY84 whole entry): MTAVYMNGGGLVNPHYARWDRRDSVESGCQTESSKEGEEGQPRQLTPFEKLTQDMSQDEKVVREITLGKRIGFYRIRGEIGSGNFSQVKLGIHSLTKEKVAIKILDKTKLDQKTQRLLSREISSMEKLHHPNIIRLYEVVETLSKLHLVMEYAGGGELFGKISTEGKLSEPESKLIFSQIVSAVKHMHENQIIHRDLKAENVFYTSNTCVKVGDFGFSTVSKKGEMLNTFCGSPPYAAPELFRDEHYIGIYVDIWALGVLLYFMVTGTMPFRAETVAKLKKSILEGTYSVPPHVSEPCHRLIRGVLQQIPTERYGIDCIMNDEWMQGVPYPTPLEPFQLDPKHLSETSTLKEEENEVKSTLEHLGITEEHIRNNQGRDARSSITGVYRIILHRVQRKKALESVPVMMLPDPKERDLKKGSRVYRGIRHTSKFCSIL

In the case of C#CCOc1ccc(Nc2ncc(Cl)c(Nc3ccccc3NC(=O)C=C)n2)c(OC)c1 [Compound 6], the “Inhibition (%)” value (CDK3/cyclin E1; 1 μM WEL028, 1 h preincubation) is reported as 1%, the “Inhibition at 1 µM (%)” value (CDK3/cyclin E1) is reported as -3% and the “Inhibition at 1 µM (%)” value (CDK3/cyclin E1; listed as WEL028, 1 µM) is reported as 5%. For the same molecule, the inhibition at 1 µM (MLK4; [3]) was 3%, the “Inhibition at 1 µM (%)” value (MLK4; MLK4, 1 µM, LanthaScreen Binding, listed as WEL028, 1 µM) was 6% and 0% and the inhibition at 1 µM (MST4; [3]) was 19%. The “Inhibition at 1 µM (%)” value (MST4; MST4, 1 µM, ZLYTE, ATP Km app, listed as WEL028, 1 µM) was 18%, the inhibition at 1 µM (MST4; read-out: Inhibition at 1 µM (%), MST4, 1 µM, ZLYTE, ATP Km app) was 21% and the IC50 (MAP2K2 (MEK2)) was 251 nM. The inhibition at 1 µM (MAP2K2 (MEK2); [3]) was 106%, the inhibition at 10 µM (MAP2K2 (MEK2); [4]) was 104% and the inhibition at 3.311 µM (MAP2K2 (MEK2); [5]) was 103%. The inhibition at 1.122 µM (MAP2K2 (MEK2); [6]) was 99%, the inhibition at 0.3715 µM (MAP2K2 (MEK2); [7]) was 68% and the inhibition at 0.123 µM (MAP2K2 (MEK2); [8]) was 38%. The inhibition at 0.04074 µM (MAP2K2 (MEK2); [9]) was 33%, the inhibition at 0.0138 µM (MAP2K2 (MEK2); [10]) was 27% and the inhibition at 0.001514 µM (MAP2K2 (MEK2); [11]) was 16%. It also gave an inhibition at 0.0004898 µM (MAP2K2 (MEK2); [12]) of 10%, an inhibition at 0.004571 µM (MAP2K2 (MEK2); [13]) of 20% and an Apparent fold selectivity (MAP2K2 (MEK2); IC50 on that kinase divided by IC50 on FES^S700C) of 54 fold. For the same molecule, the inhibition at 1 µM (MAP2K2 (MEK2); read-out: Inhibition at 1 µM (%), MAP2K2 (MEK2), 1 µM, ZLYTE, ATP 100) was 109%, the inhibition at 1 µM (NIM1K; [3]) was 2% and the inhibition at 1 µM (NIM1K; read-out: Inhibition at 1 µM (%), NIM1K, 1 µM, ZLYTE, ATP Km app) was 3%. The inhibition at 1 µM (DAPK2; [3]) was 10%, the “Inhibition at 1 µM (%)” value (DAPK2) was 14% and the “Inhibition at 1 µM (%)” value (DAPK2; listed as WEL028, 1 µM) was 6%. It also gave an Apparent fold selectivity (MAP3K8 (COT) [1]) of 57 fold, an IC50 (MAP3K8 (COT) [2]) of 251 nM and an inhibition at 1 µM (MAP3K8 (COT) [2]; [3]) of 77%. It also gave an inhibition at 10 µM (MAP3K8 (COT) [2]; [4]) of 100%, an inhibition at 3.311 µM (MAP3K8 (COT) [2]; [5]) of 101% and an inhibition at 1.122 µM (MAP3K8 (COT) [2]; [6]) of 95%. The inhibition at 0.3715 µM (MAP3K8 (COT) [2]; [7]) was 67%, the inhibition at 0.123 µM (MAP3K8 (COT) [2]; [8]) was 46% and the inhibition at 0.04074 µM (MAP3K8 (COT) [2]; [9]) was 34%. The inhibition at 0.0138 µM (MAP3K8 (COT) [2]; [10]) was 24%, the inhibition at 0.001514 µM (MAP3K8 (COT) [2]; [11]) was 15% and the inhibition at 0.0004898 µM (MAP3K8 (COT) [2]; [12]) was 17%. The inhibition at 0.004571 µM (MAP3K8 (COT) [2]; [13]) was 17%, the “Inhibition at 1 µM (%)” value (MAP3K8 (COT) [2]; MAP3K8 (COT), 1 µM, ZLYTE, ATP 100, listed as WEL028, 1 µM) was 82% and the inhibition at 1 µM (MAP3K8 (COT) [2]; read-out: Inhibition at 1 µM (%), MAP3K8 (COT), 1 µM, ZLYTE, ATP 100) was 73%. For the same molecule, the “Inhibition at 1 µM (%)” value (YES1; [14]) was 10%, the inhibition at 1 µM (YES1; [3]) was 8% and the inhibition at 1 µM (YES1; [15]) was 7%. For the same molecule, the “Inhibition at 1 µM (%)” value (TYRO3 (RSE); [14]) was 6%, the inhibition at 1 µM (TYRO3 (RSE); [3]) was 5% and the inhibition at 1 µM (TYRO3 (RSE); [15]) was 4%. For the same molecule, the inhibition at 1 µM (ABL2 (Arg); [3]) was -5%, the “Inhibition at 1 µM (%)” value (ABL2 (Arg)) was -2% and the “Inhibition at 1 µM (%)” value (ABL2 (Arg); listed as WEL028, 1 µM) was -9%. For the same molecule, the inhibition at 1 µM (DYRK1A; [3]) was 1%, the “Inhibition at 1 µM (%)” value (DYRK1A) was 3% and the “Inhibition at 1 µM (%)” value (DYRK1A; listed as WEL028, 1 µM) was 0%.
